Assay results reported in US3963707A, “Novel N-nitroso compounds, compositions containing such compounds, processes for their preparation and methods of treatment therewith, and novel intermediates” (Aktiebolaget Leo, priority 1973, dated 1976).

What was measured:
[1] = test system: Hepatoma AH 130; assay: in vivo; parameters: species or system SPF Wistar rats; conditions: for ED50: Rattus norvegicus, ip, 192 h, one injection i.p. day after implantation, dose causing 50 percent reduction of tumour size; for T.I. (LD50/ED50): Hepatoma AH 130, rats, i.p.
Summary of the method: (§1)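 Therapeutic index (LD50/ED50) was derived from tumour weight against controls at day-8 sacrifice, with ED50 the dose giving 50% tumour reduction. Rats (SPF Wistar) bore 5 × 10^6 hepatoma cells implanted intraperitoneally. A single i.p. injection followed on the day after implantation.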

[2] = test system: Lymphatic leukemia L 1210; assay: Lymphatic leukemia L 1210 test; format: in vivo, CDF1 (C3H×DBA/2)F1 mice; conditions: dose of 1000 mg/kg, comparative compounds
Source text: (§2) The experimental design and the interpretation of the results have been in accordance with the standards set by the CCNSC (Cancer Chemotherapy Reports, January 1959 and December 1962), and by the DR&D (Cancer Chemotherapy Reports, September 1972, Vol. 3, No. 2).
(§3) The way of administration is by the intraperitoneal route (i.p.) in each case.
Lymphatic leukemia L 1210
Experimental animals: CDF1 (C3H×DBA/2)F1 mice.
Tumour implant: 10^5 tumour cells i.p.
(§4) Therapy: One injection i.p. on the day following implantation.
Evaluation: a) The survival time of the test animals (t) expressed as the percentage of that of control animals (c).
b. Weight change in the test animals (T) compared with that of the control animals (c) up to the 5th day.
c. The mortality rate must not exceed 35% in the test animals on the 5th day of therapy.

[3] = test system: Ehrlich ascites tumour, ELD hyperdiploid (46 chromosomes); assay: Ehrlich ascites tumour test (LD50, ED50, therapeutic index); format: in vivo, SPF NMRI mice; conditions: additional compounds, result in words
Source text: The high activity against tumours is further illustrated in these experiments by comparisons with known antitumour agents used in the therapy. The therapeutic indexes (T.I.), i.e. the ratios LD50/ED50, are in all comparisons much more favourable with the compounds of the present invention.
LD50 is the dose that caused a 50 percent lethality of the animals, ED50 is the dose that caused a 50 percent reduction of tumour size.
as §2, §3
Ehrlich ascites tumour, ELD hyperdiploid (46 chromosomes)
Experimental animals: SPF NMRI mice.
Tumour implant: 2 × 10^6 tumour cells i.p.
as §4
Termination: The animals are killed on the 8th day.
Evaluation: Weights of tumours of test animals compared with those of control animals.

[4] = test system: Walker carcinosarcoma 256; assay: Walker carcinosarcoma 256 test; format: in vivo, Sprague Dawley rats; conditions: for Lethality: died/used animals
Source text: as §2, §3
Walker carcinosarcoma 256
Experimental animals: Sprague Dawley rats.
Tumour implant: Tumour pieces with 2-4 mm diameter, subcutaneously.
Therapy: Daily injections i.p. for 5 days starting on the day following implantation.
Termination: The animals are killed on the 9th day.
Evaluation: Weights of tumours of test animals are compared with those of control animals. The differences, in per cent of weights of tumours of control animals, give per cent tumour inhibition.
The lethality is given as the number of animals which died in the experiment/the number of animals used in the experiments.

[5] = in vivo; parameters: species or system SPF Wistar rats; conditions: rat, in vivo, ip; one injection i.p., rats; dose causing 50 percent lethality
Summary of the method: as §1

[6] = doses 1 × 250, 1 × 500 and 1 × 1000 mg/kg respectively
[7] = additional compounds, result in words

Structure (SMILES)	anti-tumor activity [3]	anti-tumor activity [1, 7]	other results
C[C@]12CC[C@H](OC(=O)NCCCl)CC1=CC[C@@H]1[C@@H]2CC[C@]2(C)C(=O)CC[C@@H]12 [dehydroepiandrosterone-3β-N-(2-chloroethyl) carbamate, reference compound]			anti-tumor activity [1, 6]: inactive; effect on L 1210 [2]: without effect
C[C@]12CC[C@H](OC(=O)N(CCCBr)N=O)CC1=CC[C@@H]1[C@@H]2CC[C@]2(C)C(=O)CC[C@@H]12 [dehydroepiandrosterone - 3β-N-(3-bromopropyl)-N-nitroso carbamate]	exhibit anti-tumor activity		Tumour inhibition % ([4]; 5×125 mg/kg i.p.): 39%; Lethality ([4]; 5×125 mg/kg i.p.): 0/8
CC(=O)O[C@H]1CC[C@@]2(C)C(=CC[C@H]3[C@@H]4CC[C@H](OC(=O)N(CCCl)N=O)[C@@]4(C)CC[C@@H]32)C1 [androstenediol-3β-acetate-17β-N-(2-chloroethyl)-N-nitroso carbamate]	exhibit anti-tumor activity		LD50 [5]: > 250 mg/kg; ED50 [1]: 0.25 mg/kg; Tumour inhibition % ([4]; 5×125 mg/kg i.p.): 41%; Lethality ([4]; 5×125 mg/kg i.p.): 0/8
CC(Cl)CN(N=O)C(=O)O[C@H]1CC[C@@]2(C)C(=CC[C@@H]3[C@@H]2CC[C@]2(C)C(=O)CC[C@@H]32)C1 (stereo partly drawn) [dehydroepiandrosterone-3β-N-(2-chloropropyl)-N-nitroso carbamate]	exhibit anti-tumor activity		LD50 [5]: > 1000 mg/kg; T.I. (LD50/ED50) [1]: > 10; ED50 [1]: 100 mg/kg
CC(=O)O[C@H]1CC[C@H]2[C@@H]3CCc4cc(OC(=O)N(CCCl)N=O)ccc4[C@H]3CC[C@]12C [estradiol-17β-acetate-3-N-(2-chloroethyl)-N-nitroso carbamate]	exhibit anti-tumor activity		LD50 [5]: > 1000 mg/kg; T.I. (LD50/ED50) [1]: > 4.000; ED50 [1]: < 0.25 mg/kg; Tumour inhibition % ([4]; 5×125 mg/kg i.p.): 69%; Lethality ([4]; 5×125 mg/kg i.p.): 1/8
CC(=O)Oc1ccc2c(c1)CC[C@@H]1[C@@H]2CC[C@]2(C)[C@@H](OC(=O)N(C(=O)N(CCCl)N=O)C3CCCCC3)CC[C@@H]12 [estradiol-3-acetate-17β-/N^2-cyclohexyl-N^4-(2-chloroethyl)-N^4-nitroso allophanate/]	exhibit anti-tumor activity	exhibit anti-tumor activity	
CC(C)CCC[C@@H](C)[C@H]1CC[C@H]2[C@@H]3CC=C4C[C@@H](OC(=O)N(C(=O)N(CCCl)N=O)C5CCCCC5)CC[C@]4(C)[C@H]3CC[C@]12C [cholesterol-3β-/N^2-cyclohexyl-N^4-(2-chloroethyl)-N^4-nitroso allophanate/]	exhibit anti-tumor activity	exhibit anti-tumor activity	
C[C@]12CCC(=O)C[C@@H]1CC[C@@H]1[C@@H]2CC[C@]2(C)[C@@H](OC(=O)N(C(=O)N(CCCl)N=O)C3CCCCC3)CC[C@@H]12 [dihydrotestosteron-17β-/N^2-cyclohexyl-N^4-(2-chloroethyl)-N^4-nitroso allophanate/]	exhibit anti-tumor activity	exhibit anti-tumor activity	
C#C[C@]1(OC(=O)N(CCCl)N=O)CC[C@H]2[C@@H]3CCC4=C(CCC(=O)C4)[C@H]3CC[C@@]21C [norethynodrel-17β-N-(2-chloroethyl)-N-nitroso carbamate]	exhibit anti-tumor activity	exhibit anti-tumor activity	
C#C[C@]1(OC(=O)N(CCCl)N=O)CC[C@H]2[C@@H]3CCc4cc(OC(C)=O)ccc4[C@H]3CC[C@@]21C [17α-ethynylestradiol-3-acetate-17β-N-(2-chloroethyl)-N-nitroso carbamate]	exhibit anti-tumor activity	exhibit anti-tumor activity	
C[C@]12CC[C@@H]3c4ccc(OC(=O)N(CCCl)N=O)cc4CC[C@H]3[C@@H]1CC[C@@H]2OC(=O)N(CCCl)N=O [estradiol-3,17β-bis/N-(2-chloroethyl)-N-nitroso carbamate/]	exhibit anti-tumor activity	exhibit anti-tumor activity	
C[C@]12CC[C@H]3[C@@H](CC=C4C[C@@H](OC(=O)N(CCCl)N=O)CC[C@@]43C)[C@@H]1CC[C@@H]2OC(=O)N(CCCl)N=O [androstenediol-3β,17β-bis-/N-(2-chloroethyl)-N-nitroso carbamate/]	exhibit anti-tumor activity		LD50 [5]: > 250 mg/kg; ED50 [1]: 0.25 mg/kg
C[C@]12CC[C@@H](OC(=O)N(CCCl)N=O)C[C@H]1CC[C@@H]1[C@@H]2CC[C@]2(C)C(=O)CC[C@@H]12 [etiocholanolone-3α-N-(2-chloroethyl)-N-nitroso carbamate]	exhibit anti-tumor activity	exhibit anti-tumor activity	
C[C@]12CC[C@H](OC(=O)N(C(=O)N(CCCl)N=O)C3CCCCC3)CC1=CC[C@@H]1[C@@H]2CC[C@]2(C)C(=O)CC[C@@H]12 [dehydroepiandrosterone-3β-/N^2-cyclohexyl-N^4-(2-chloroethyl)-N^4-nitroso allophanate/]	exhibit anti-tumor activity	exhibit anti-tumor activity	
CCCOc1ccc(CCC(=O)O[C@H]2CC[C@H]3[C@@H]4CCc5cc(OC(=O)N(CCCl)N=O)ccc5[C@H]4CC[C@]23C)cc1 [estradiol-3-N-(2-chloroethyl)-N-nitroso carbamate-17β-(p-propoxyphenyl-propionate)]	exhibit anti-tumor activity	exhibit anti-tumor activity	
CCCCCCC(=O)O[C@H]1CC[C@H]2[C@@H]3CC[C@H]4C[C@H](OC(=O)N(CCCl)N=O)CC[C@]4(C)[C@H]3CC[C@]12C [androstanediol-3α-N-(2-chloroethyl)-N-nitroso carbamate-17β-oenanthate]	exhibit anti-tumor activity	exhibit anti-tumor activity	
CC(=O)O[C@@H]1C[C@H]2[C@@H]3CCc4cc(OC(=O)N(CCCl)N=O)ccc4[C@H]3CC[C@]2(C)[C@H]1OC(C)=O [estriol-16α,17β-diacetate-3-N-(2-chloroethyl)-N-nitroso carbamate]	exhibit anti-tumor activity	exhibit anti-tumor activity	
C[C@]12CC[C@H]3[C@@H](CCC4=CC(=O)CC[C@@]43C)[C@@H]1CC[C@@H]2C(=O)COC(=O)N(CCCl)N=O [deoxycorticosterone-21-N-(2-chloroethyl)-N-nitroso carbamate]	exhibit anti-tumor activity	exhibit anti-tumor activity	
CCN(N=O)C(=O)O[C@H]1CC[C@@]2(C)C(=CC[C@@H]3[C@@H]2CC[C@]2(C)C(=O)CC[C@@H]32)C1 [dehydroepiandrosterone-3β-N-ethyl-N-nitroso carbamate, reference compound]			anti-tumor activity [1, 6]: inactive; effect on L 1210 [2]: without effect; Tumour inhibition % ([4]; 5×500 mg/kg i.p.): 0%; Lethality ([4]; 5×500 mg/kg i.p.): 1/8
CN(CCCl)C(=O)O[C@H]1CC[C@@]2(C)C(=CC[C@@H]3[C@@H]2CC[C@]2(C)C(=O)CC[C@@H]32)C1 [dehydroepiandrosterone-3β-N-(2-chloroethyl)-N-methyl carbamate, reference compound]			anti-tumor activity [1, 6]: inactive; Tumour inhibition % ([4]; 5×500 mg/kg i.p.): < 10%; Lethality ([4]; 5×500 mg/kg i.p.): 0/8
COc1ccc(N(C(=O)O[C@H]2CC[C@@]3(C)C(=CC[C@@H]4[C@@H]3CC[C@]3(C)C(=O)CC[C@@H]43)C2)C(=O)N(CCCl)N=O)cc1 [dehydroepiandrosterone-3β-/N^2-(p-methoxyphenyl)-N^4-(2-chloroethyl)-N^4-nitroso allophanate/]	exhibit anti-tumor activity	exhibit anti-tumor activity	
CC(=O)Oc1ccc2c(c1)CC[C@@H]1[C@@H]2CC[C@@]2(C)[C@H]1C[C@@H](OC(C)=O)[C@@H]2OC(=O)N(C(=O)N(CCCl)N=O)C1CCCCC1 [estriol-3,16α-diacetate-17β-/N^2-cyclohexyl-N^4-(2-chloroethyl)-N^4-nitroso allophanate/]	exhibit anti-tumor activity	exhibit anti-tumor activity	
